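These data come from cells grown in 96-well plates and exposed to compound for 48 hours at five concentrations. GI50 marks 50% less growth.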 The source made the active and inactive calls. Cut-off read from the data, not from the text of the source: active = GI50 up to about 1.1 µM and inactive = higher.
Experiments:
Test in all cases: growth of human tumour cells (NCI), 48 h
COLO 205 = system: COLO 205
MDA-MB-231 = system: MDA-MB-231
SW-620 = system: SW-620
HOP-62 = system: HOP-62
M14 = system: M14
OVCAR-3 = system: OVCAR-3
BT-549 = system: BT-549
A549 = system: A549
UACC-257 = system: UACC-257
PC-3 = system: PC-3
A498 = system: A498
U-251 = system: U-251
ACHN = system: ACHN
UO-31 = system: UO-31
SK-OV-3 = system: SK-OV-3
K562 = system: K562
IGROV-1 = system: IGROV-1
HCT-116 = system: HCT-116
NCI-H226 = system: NCI-H226
SNB-75 = system: SNB-75

Measured: GI50

CSc1ccc(NC(=O)Nc2cc(C)ccn2)cc1
inactive: COLO 205 > 100 µM | MDA-MB-231 > 100 µM | SW-620 > 100 µM | HOP-62 > 100 µM | M14 > 100 µM | OVCAR-3 > 100 µM | BT-549 > 100 µM | A549 > 100 µM | UACC-257 > 100 µM | PC-3 > 100 µM | A498 > 100 µM | U-251 > 100 µM | ACHN > 100 µM | UO-31 > 100 µM | SK-OV-3 > 100 µM | K562 > 100 µM | IGROV-1 > 100 µM | HCT-116 > 100 µM | NCI-H226 > 100 µM | SNB-75 > 100 µM

COC(=O)C1=C(C(=O)OC)C2OC1C1C2C2(C)C(C)=C(C)C1(C)[S+]2[O-] (stereo not given)
inactive: COLO 205 6.43 µM | MDA-MB-231 22.5 µM | SW-620 4.14 µM | HOP-62 20.2 µM | M14 8.59 µM | OVCAR-3 9.02 µM | BT-549 10.4 µM | A549 22.3 µM | UACC-257 12.4 µM | PC-3 16.1 µM | A498 27.5 µM | U-251 13.8 µM | ACHN 2.83 µM | UO-31 4.21 µM | SK-OV-3 37.9 µM | K562 4.9 µM | IGROV-1 16.7 µM | HCT-116 6.08 µM | NCI-H226 8.02 µM | SNB-75 19.5 µM

COc1cc2cc(C(=O)N3CC(CCl)c4ccccc43)[nH]c2c(OC)c1OC (stereo not given)
inactive: COLO 205 33.8 µM | MDA-MB-231 > 100 µM | SW-620 60.1 µM | HOP-62 > 56.2 µM | M14 62.5 µM | OVCAR-3 > 100 µM | BT-549 28.6 µM | A549 47.1 µM | UACC-257 99.3 µM | PC-3 21.9 µM | A498 18.2 µM | U-251 > 69.2 µM | ACHN > 77.3 µM | UO-31 47.4 µM | SK-OV-3 > 100 µM | K562 3.1 µM | IGROV-1 > 100 µM | HCT-116 67.9 µM | NCI-H226 > 100 µM | SNB-75 > 92.5 µM

Cc1cccc2c1NC(=O)/C2=N\Nc1ccccc1[N+](=O)[O-]
inactive: COLO 205 30.4 µM | MDA-MB-231 2.58 µM | SW-620 9.82 µM | HOP-62 3.52 µM | M14 19.4 µM | OVCAR-3 8.13 µM | BT-549 20.4 µM | A549 4.49 µM | UACC-257 13.8 µM | PC-3 10.9 µM | A498 19.3 µM | U-251 2.37 µM | ACHN 2.97 µM | UO-31 3.55 µM | SK-OV-3 4.34 µM | K562 17.5 µM | IGROV-1 2.37 µM | HCT-116 6.82 µM | NCI-H226 10.3 µM | SNB-75 11.1 µM

CC(C)(C)C1(COC(=O)c2ccc(N)cc2)COC1
inactive: COLO 205 > 100 µM | MDA-MB-231 52.1 µM | SW-620 > 100 µM | HOP-62 > 100 µM | M14 61 µM | OVCAR-3 26.3 µM | BT-549 54.6 µM | A549 52.6 µM | UACC-257 43.5 µM | PC-3 47.2 µM | A498 87.3 µM | U-251 58.1 µM | ACHN 78.7 µM | UO-31 56 µM | SK-OV-3 58.1 µM | K562 46.3 µM | IGROV-1 > 100 µM | HCT-116 51.9 µM | NCI-H226 > 100 µM | SNB-75 76.6 µM

C[C@]12C=CC(=O)C=C1CC[C@@H]1[C@@H]2C(=O)C[C@@]2(C)[C@H]1CC[C@]2(O)C(=O)CO [PREDNISONE]
inactive: COLO 205 > 100 µM | MDA-MB-231 > 100 µM | SW-620 > 100 µM | HOP-62 > 100 µM | M14 > 100 µM | OVCAR-3 > 100 µM | BT-549 > 100 µM | A549 > 100 µM | UACC-257 > 100 µM | PC-3 > 100 µM | A498 > 100 µM | U-251 > 100 µM | ACHN > 100 µM | UO-31 > 100 µM | SK-OV-3 > 100 µM | K562 > 100 µM | IGROV-1 > 100 µM | HCT-116 59.8 µM | NCI-H226 > 100 µM | SNB-75 > 100 µM
